From article PMC10122656, “Siglec-6 mediates the uptake of extracellular vesicles through a noncanonical glycolipid binding pocket” (Nature Communications, 2023) come the findings set out here.

Several values for one entry are separate records, joined by “and”; a condition that tells them apart may be missing. Equal values may be shown once.

Assay in all cases: Cell assay (liposome/EV binding, flow cytometry)
Holding throughout (assay type): cell-based
(In general: Flow cytometry measures light scatter and fluorescence of single cells or particles in a stream.)

One assay deals with T1, CD22 WT CHO cells (Homo sapiens, UniProt P20273).
T1 construct: expressed in transfected cells
T1 sequence (P20273 20-847): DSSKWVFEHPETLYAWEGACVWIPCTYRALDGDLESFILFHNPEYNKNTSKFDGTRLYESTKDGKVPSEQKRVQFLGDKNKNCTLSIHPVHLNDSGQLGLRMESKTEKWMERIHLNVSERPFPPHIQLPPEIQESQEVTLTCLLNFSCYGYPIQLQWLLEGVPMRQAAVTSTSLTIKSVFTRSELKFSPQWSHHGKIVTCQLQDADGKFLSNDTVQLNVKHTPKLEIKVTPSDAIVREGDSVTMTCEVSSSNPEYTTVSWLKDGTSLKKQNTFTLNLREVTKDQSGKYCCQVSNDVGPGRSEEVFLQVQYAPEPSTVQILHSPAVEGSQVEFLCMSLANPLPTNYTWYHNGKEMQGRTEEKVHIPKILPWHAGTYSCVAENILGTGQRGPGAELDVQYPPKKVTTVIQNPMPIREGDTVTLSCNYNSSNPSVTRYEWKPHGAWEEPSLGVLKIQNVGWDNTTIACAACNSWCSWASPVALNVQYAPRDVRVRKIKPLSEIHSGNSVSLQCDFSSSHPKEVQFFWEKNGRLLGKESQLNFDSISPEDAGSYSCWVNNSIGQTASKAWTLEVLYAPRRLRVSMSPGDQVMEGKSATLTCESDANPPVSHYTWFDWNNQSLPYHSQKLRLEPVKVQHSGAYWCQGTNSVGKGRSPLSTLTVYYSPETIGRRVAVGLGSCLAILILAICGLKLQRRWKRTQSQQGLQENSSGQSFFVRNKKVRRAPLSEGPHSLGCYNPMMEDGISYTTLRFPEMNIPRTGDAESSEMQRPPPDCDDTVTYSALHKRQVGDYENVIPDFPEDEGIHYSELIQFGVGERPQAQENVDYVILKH
As to conditions: 3 mol% ganglioside liposomes, replicates. A digest of the protocol: (§1)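 Cells are incubated for 30 min at 37 °C with ligand-displaying liposomes (50 µM lipid) or EVs (50 µg/mL protein) in DMEM F12 containing 5% FBS. After washing and anti-Siglec staining on ice, liposome binding is quantified by flow cytometry within the Siglec-positive population.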

A further assay has as its target T2, Siglec-8 R125A CHO cells (Homo sapiens, UniProt Q9NYZ4, R125A).
T2 construct: expressed in transfected cells
As to conditions: Sig-8 R125A; 3 mol% ganglioside liposomes; replicates. A digest of the protocol: as §1

For a further assay, the target named is T3, Siglec-15 WT CHO cells (Homo sapiens, UniProt Q6ZMC9, K274L).
T3 construct: expressed in transfected cells
T3 sequence (Q6ZMC9 20-328 K274L): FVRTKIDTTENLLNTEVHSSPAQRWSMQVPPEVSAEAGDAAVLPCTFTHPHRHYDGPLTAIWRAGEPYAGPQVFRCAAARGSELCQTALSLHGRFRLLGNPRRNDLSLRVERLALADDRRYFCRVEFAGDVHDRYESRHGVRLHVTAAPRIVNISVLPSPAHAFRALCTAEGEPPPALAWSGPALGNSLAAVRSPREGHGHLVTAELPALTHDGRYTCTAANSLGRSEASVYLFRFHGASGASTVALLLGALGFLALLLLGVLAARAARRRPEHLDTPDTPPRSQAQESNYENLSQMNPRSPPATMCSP
As to conditions: Sig-15 WT; 3 mol% ganglioside liposomes; replicates. A digest of the protocol:
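CHO cells expressing the indicated Siglec (wild-type or R-to-A mutant) were incubated 30 min at 37 °C with 50 µM fluorescent DSPC/cholesterol/PEG-DSPE liposomes (~130 nm, Siglec ligand-bearing) or 50 µg/mL EVs in DMEM F12 5% FBS. After washing and anti-Siglec staining on ice, binding was measured by flow cytometry on Siglec-positive gated cells.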

For another assay, the target named is T4, Siglec-11 WT CHO cells (Homo sapiens, UniProt Q96RL6).
T4 construct: expressed in transfected cells
T4 sequence (Q96RL6 28-698): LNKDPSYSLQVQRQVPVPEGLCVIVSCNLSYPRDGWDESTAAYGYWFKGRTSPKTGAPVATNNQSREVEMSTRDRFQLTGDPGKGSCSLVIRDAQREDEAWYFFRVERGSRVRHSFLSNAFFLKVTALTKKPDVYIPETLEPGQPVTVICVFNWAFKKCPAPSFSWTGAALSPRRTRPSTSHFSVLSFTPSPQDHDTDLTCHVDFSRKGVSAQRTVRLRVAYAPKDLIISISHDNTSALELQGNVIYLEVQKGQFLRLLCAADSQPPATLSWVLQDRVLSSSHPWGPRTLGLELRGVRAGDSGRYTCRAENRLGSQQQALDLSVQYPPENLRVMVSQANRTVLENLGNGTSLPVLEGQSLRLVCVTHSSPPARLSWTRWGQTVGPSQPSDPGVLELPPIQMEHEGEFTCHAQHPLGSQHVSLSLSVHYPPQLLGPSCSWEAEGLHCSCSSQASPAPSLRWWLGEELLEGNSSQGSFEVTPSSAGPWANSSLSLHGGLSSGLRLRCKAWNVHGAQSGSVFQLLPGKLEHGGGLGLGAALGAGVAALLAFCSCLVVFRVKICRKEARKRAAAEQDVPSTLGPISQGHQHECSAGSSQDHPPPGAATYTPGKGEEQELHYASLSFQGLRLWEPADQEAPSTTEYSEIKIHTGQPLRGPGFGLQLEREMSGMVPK
As to conditions: Sig-11 WT; 3 mol% ganglioside liposomes; replicates. A digest of the protocol: as §1

T2 sequence (Q9NYZ4 17-499 R125A): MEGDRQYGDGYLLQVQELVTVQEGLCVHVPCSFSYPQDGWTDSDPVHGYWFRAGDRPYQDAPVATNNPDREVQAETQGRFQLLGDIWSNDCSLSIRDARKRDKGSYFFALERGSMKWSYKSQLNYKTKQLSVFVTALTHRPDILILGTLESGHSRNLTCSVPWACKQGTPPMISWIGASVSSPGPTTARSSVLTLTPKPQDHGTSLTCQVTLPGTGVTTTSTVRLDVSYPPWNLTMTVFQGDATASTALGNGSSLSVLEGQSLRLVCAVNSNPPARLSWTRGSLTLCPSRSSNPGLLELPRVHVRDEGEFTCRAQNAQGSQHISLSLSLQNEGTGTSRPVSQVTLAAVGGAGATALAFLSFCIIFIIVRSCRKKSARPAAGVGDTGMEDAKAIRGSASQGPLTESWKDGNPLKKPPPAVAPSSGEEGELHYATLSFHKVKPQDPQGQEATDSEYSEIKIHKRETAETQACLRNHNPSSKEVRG

Take GD3: the “log10(MFI AF647) of GLL relative to log10(MFI AF647) of the same GLL against UT CHO cells (Fig. 2a)” value was 0.09 and 0.07 and 0.1 (2×) at CD22 WT CHO cells; -0.04 (2×) and -0.08 (2×) at Siglec-8 R125A CHO cells; -0.02 and -0.01 and 0 and -0.03 on Siglec-15 WT CHO cells; -0.13 and -0.11 and -0.09 (2×) at Siglec-11 WT CHO cells.

As for GD1b, the “log10(MFI AF647) of GLL relative to log10(MFI AF647) of the same GLL against UT CHO cells (Fig. 2a)” value on CD22 WT CHO cells was -0.04 and -0.05 and -0.06 (2×); on Siglec-8 R125A CHO cells it was -0.14 and -0.15 and -0.17 and -0.19; at Siglec-15 WT CHO cells, -0.14 (2×) and -0.12 (2×); at Siglec-11 WT CHO cells, -0.1 (3×) and -0.09.

With GM3, the “log10(MFI AF647) of GLL relative to log10(MFI AF647) of the same GLL against UT CHO cells (Fig. 2a)” value was -0.16 and -0.15 (3×) on CD22 WT CHO cells; -0.18 and -0.17 and -0.2 (2×) at Siglec-8 R125A CHO cells; -0.12 and -0.09 (2×) and -0.1 on Siglec-15 WT CHO cells; -0.1 and -0.09 and -0.11 and -0.12 on Siglec-11 WT CHO cells.

In the case of GT1b, the “log10(MFI AF647) of GLL relative to log10(MFI AF647) of the same GLL against UT CHO cells (Fig. 2a)” value at CD22 WT CHO cells is 0.06 (2×) and 0.04 and 0.05; at Siglec-8 R125A CHO cells, -0.22 (2×) and -0.23 and -0.24; at Siglec-15 WT CHO cells, -0.04 (3×) and -0.01; on Siglec-11 WT CHO cells it was -0.17 and -0.15 and -0.13 (2×).

On to GM1, for which the “log10(MFI AF647) of GLL relative to log10(MFI AF647) of the same GLL against UT CHO cells (Fig. 2a)” value on CD22 WT CHO cells is -0.03 (2×) and -0.04 and -0.06; at Siglec-8 R125A CHO cells, -0.02 and -0.06 and -0.08 and -0.03; at Siglec-15 WT CHO cells, -0.21 and -0.2 and -0.17 (2×); at Siglec-11 WT CHO cells, 0.11 and 0.12 and 0.14 and 0.13.

Regarding GQ1b, the “log10(MFI AF647) of GLL relative to log10(MFI AF647) of the same GLL against UT CHO cells (Fig. 2a)” value at CD22 WT CHO cells was -0.05 (3×) and -0.04; on Siglec-8 R125A CHO cells it was 0.01 and -0.02 and -0.04 and -0.05; at Siglec-15 WT CHO cells, -0.13 and -0.12 (2×) and -0.17; at Siglec-11 WT CHO cells, -0.25 and -0.21 and -0.2 and -0.24.

For the substance GD1a, the “log10(MFI AF647) of GLL relative to log10(MFI AF647) of the same GLL against UT CHO cells (Fig. 2a)” value on CD22 WT CHO cells was 0.06 (2×) and 0.03 and 0.05; on Siglec-8 R125A CHO cells, -0.1 and -0.13 (3×); on Siglec-15 WT CHO cells, -0.08 and -0.06 and -0.07 (2×); at Siglec-11 WT CHO cells, -0.11 (2×) and -0.07 and -0.09.

With GM4, the “log10(MFI AF647) of GLL relative to log10(MFI AF647) of the same GLL against UT CHO cells (Fig. 2a)” value at CD22 WT CHO cells is 0.05 (2×) and 0.06 and 0.07; on Siglec-8 R125A CHO cells it was -0.14 (3×) and -0.16; at Siglec-15 WT CHO cells, -0.1 and -0.08 (2×) and -0.07; on Siglec-11 WT CHO cells, -0.11 and -0.09 (2×) and -0.07.

With GM2, the “log10(MFI AF647) of GLL relative to log10(MFI AF647) of the same GLL against UT CHO cells (Fig. 2a)” value at CD22 WT CHO cells is 0.01 (3×) and 0; on Siglec-8 R125A CHO cells, -0.12 and -0.14 and -0.17 (2×); on Siglec-15 WT CHO cells, -0.07 and -0.05 and -0.03 (2×); at Siglec-11 WT CHO cells, -0.06 and -0.03 (2×) and -0.04.
